In patent US20260185163A1, “MEN1 MUTATIONS AND USES THEREOF” (DANA-FARBER CANCER INSTITUTE, INC., priority 2022, published 2026):
Substitutions are numbered along the chain they refer to.

Key:
[1] = target: T1, M327I-mutant Menin (Homo sapiens, UniProt O00255, M322I); test: competitive MLL1 fluorescence polarization (FP) binding assay, displacement of MLL1 peptide
T1 construct: made in house; host or cells: E. coli BL21-DE3 Rosetta
T1 sequence (O00255 1-615 isoform O00255-1 M327I): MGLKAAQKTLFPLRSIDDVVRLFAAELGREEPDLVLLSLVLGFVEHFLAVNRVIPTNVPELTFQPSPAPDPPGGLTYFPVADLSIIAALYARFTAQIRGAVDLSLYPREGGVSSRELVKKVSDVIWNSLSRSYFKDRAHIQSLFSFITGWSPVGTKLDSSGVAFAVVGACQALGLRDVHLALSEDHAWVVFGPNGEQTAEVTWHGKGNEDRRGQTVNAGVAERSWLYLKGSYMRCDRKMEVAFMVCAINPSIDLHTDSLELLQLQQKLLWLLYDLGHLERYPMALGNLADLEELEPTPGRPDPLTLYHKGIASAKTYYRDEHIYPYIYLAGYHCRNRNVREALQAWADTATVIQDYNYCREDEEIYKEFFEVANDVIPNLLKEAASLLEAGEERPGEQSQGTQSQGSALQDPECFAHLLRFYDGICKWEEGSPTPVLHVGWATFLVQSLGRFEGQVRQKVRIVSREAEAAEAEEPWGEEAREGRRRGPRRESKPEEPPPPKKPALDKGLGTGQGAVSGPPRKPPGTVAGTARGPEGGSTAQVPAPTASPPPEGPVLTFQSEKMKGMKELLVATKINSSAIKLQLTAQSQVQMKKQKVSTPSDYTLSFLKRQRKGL
Procedure: (§1) The following peptides were synthesized by GenScript: N-terminal FITC-conjugated MLL14-43(C-A) peptide probe ([…]) with a C-A modification that improves binding to Menin^19, MLL14-43(C-A) ([…]) and MLL14-43(WT) ([…]). N-terminally FITC-labelled and unmodified MLL2 peptides (MLL2(15-48) […]) were synthesized at Genscript. To derive the FITC-MLL14-43(C-A) peptide Kd. FITC-conjugated MLL14-43(C-A) peptide probe at final concentration of 1 nM was mixed with increasing concentration of purified StrepII-Avi-TEV-Menin (5 μM final top concentration, 2-fold, 23-point dilution and a buffer control) in an assay buffer (50 mM Tris pH 7.5, 200 mM NaCl, 0.1% Pluronic F-68 solution (Sigma)) in 384-well microplates at 15 μL assay volume (Corning, 4514) and incubated for 30 min at room temperature (RT). For all assays change in fluorescence polarization was monitored using a PHERAstar FS microplate reader (BMG Labtech). The FITC-conjugated MLL14-43(C-A) peptide Kd was obtained from a fit in GraphPad Prism 9 using one site total model and averaged from three independent runs with three replicates (n=3, FIG. 8). In competitive titration experiments Menin proteins (1 nM WT, 1 nM M327I or 3 nM for T349M) and 1 nM FITC-conjugated MLL14-43(C-A) peptide probe were incubated in an assay buffer for 30 min. SNDX-5613 was then dispensed to 384-well microplate (Corning, 4514) containing 15 μL of the assay mix using D300e Digital Dispenser (HP) and normalized to 1% DMSO followed by 90 min incubation. The fluorescence polarization was monitored by PHERAstar FS microplate reader (BMG Labtech). The MLL14-43(WT) and MLL14-43(C-A) peptide titrations were performed by addition of 7.5 μL of 2-fold 23-point serial dilution into 7.5 μL of assay mix with the final concentrations of 1 nM FITC-conjugated MLL4-43 peptide probe, 1 nM WT Menin or 1 nM Menin M327I or 3 nM Menin T349M in assay buffer. The fluorescence polarization was monitored by PHERAstar FS microplate reader (BMG Labtech). For analysis of the competitive titration experiments the last 10 cycles of the data were averaged to obtain technical replicates. Data from three independent replicates (n=3) was plotted and IC50 values estimated using variable slope equation in GraphPad Prism 9. The calculation of Ki values was performed using Ki calculator available at websites.umich.edu/˜shaomengwanglab/software/calc_ki/index.html^23.

[2] = target: T2, T349M-mutant Menin (Homo sapiens, UniProt O00255, T344M); test: as above
T2 construct: made in house; host or cells: E. coli BL21-DE3 Rosetta
T2 sequence (O00255 1-615 isoform O00255-1 T349M): T1 sequence (O00255 1-615 isoform O00255-1 M327I) with I327M, T349M
Procedure: as §1

CNc1nc(NC2CCN(Cc3ccc4c(cc(C#N)n4CC45CC(NC=O)(C4)C5)c3C)CC2)c2cc(CC(F)(F)F)sc2n1 [MI-3454]
effect of M327I on binding ([1]; M327I mutant Menin): severely affected
effect of T349M on binding in the fluorescence polarization assay ([2]; T349M mutant Menin): less affected

CCN(C(=O)c1cc(F)ccc1Oc1cncnc1N1CC2(CCN(C[C@H]3CC[C@H](NS(=O)(=O)CC)CC3)CC2)C1)C(C)C [SNDX-5613, revumenib]
increase of IC50-value for MLL-displacement compared to WT Menin ([1]; M327I mutant vs WT Menin): 51 fold
reduction in affinity, fluorescence polarization ([1]; MEN1-M327I compared to MEN1-WT): over 50 fold
increase of IC50-value for MLL-displacement compared to WT Menin ([2]; T349M mutant vs WT Menin): 111 fold
